From patent US20150152101A1, “ACTIVE COMPOUNDS FOR COMBATING GREASY SKIN” (L'OREAL, priority 2012, published 2015)

Key:
Type in all cases: cell-based
[1] = tested on: corneodesmosin; test: Western blot of corneodesmosin in extracts of treated Episkin reconstructed epidermis; settings: systemic treatment over 5 days, grade relative to reference, generally for the highest concentration used (tested 1 and 10 μM), (*) = most active
Protocol: (§1) The samples of reconstructed epidermis, received from the company Episkin at six days of reconstruction, were recultured as soon as received in 3.5 ml of differentiation medium (Episkin™ medium) under insert (in immersion) for 48 hours in an incubator (37° C., 5% CO2).
(§2) The epidermis samples were then placed in contact with the test compounds systemically. The Episkin™ differentiation culture medium is changed for a differentiation medium containing the test compounds with 0.1% of final DMSO vehicle. The epidermis samples were recultured in an incubator for 48 hours. A new systemic treatment is performed for a further 72 hours of culture in the incubator.
For the treatment on Episkin™, each test compound was prepared extemporaneously by weighing out and dissolving at 10 mM in DMSO, and was then used to treat 3 samples of reconstructed epidermis. Furthermore, each test compound was used in a proportion of 1 and 10 μM final in the culture medium (0.1% DMSO final). The positive controls used were vitamin D3, retinol and calcipotriol (a vitamin D3 analogue).
The epidermis samples were collected (3 epidermis samples per treatment) for histological analysis and protein extracts (the same reconstructed epidermis is used for the histological study and the protein extract). […]

[2] = tested on: Ki67; test: Ki67 immunolabelling of treated Episkin reconstructed epidermis; settings: for Ki67: Episkin, systemic treatment over 5 days
Protocol: as §1, §2
(§3) For the treatment on Episkin™, each test compound was prepared extemporaneously by weighing out and dissolving at 10 mM in DMSO, and was then used to treat 3 samples of reconstructed epidermis. […] The positive controls used were vitamin D3, retinol and calcipotriol (a vitamin D3 analogue).
(§4) The epidermis samples were collected (3 epidermis samples per treatment) for histological analysis and protein extracts (the same reconstructed epidermis is used for the histological study and the protein extract).
The epidermis samples were included in OCT for freezing in liquid nitrogen and then stored at −80° C. The blocks obtained were sliced using a cryostat to a thickness of 7 μm, and the slices were dried and stored at −20° C. while awaiting immunolabelling.
The marker chosen for the immunolabellings is Ki67, which affords information regarding a possible modification of the cell proliferation in the basal layer.

[3] = tested on: Episkin™ reconstructed epidermis; test: HES morphological observation of treated Episkin reconstructed epidermis; settings: systemic treatment over 5 days
Protocol: as §1, §2, §3, §4
The morphological control of the treated reconstructed epidermis samples was performed by staining with HES (haematoxylin-eosin-saffron) according to a standard protocol on histological slices of the samples included in paraffin (toluene bath: three times 15 minutes; 100° alcohol baths: twice for 1 minute; 95° alcohol baths: 1 minute; rinsing in water baths; haematoxylin bath: once for 2 minutes; rinsing in water baths; short dipping in a hydrochloric acid bath; rinsing in water; eosin bath: once for 1 minute; rinsing in water; short dipping in a 100° alcohol bath; saffron bath (5 minutes); short dipping in a 100° alcohol bath; toluene bath: three times for 2 minutes).

[4] = grade relative to reference, generally for the highest concentration used (tested 1 and 10 μM), (*) = most active

| SMILES | CDSN [1] | HES [3, 4] | also measured |
| --- | --- | --- | --- |
| COc1cccc(C2C3=C(Nc4c2c(=O)n(C)c(=O)n4C)c2ccccc2C3=O)c1 (centres unmarked) [Compound (1)] | ++ (*) | – | – |
| Cn1c2c(c(=O)n(C)c1=O)C(c1cccc(O)c1)C1=C(N2)c2ccccc2C1=O (centres unmarked) [Compound (2)] | – | – | Ki67 ([2]; grade relative to reference, generally for the highest concentration used (tested 1 and 10 μM)): 0 |
| Cn1c2c(c(=O)n(C)c1=O)C(c1ccc(O)cc1)C1=C(N2)c2ccccc2C1=O (centres unmarked) [Compound (5)] | – | – | Ki67 labelling (FIG. 2) ([2]; Episkin treated in the absence and presence of compound, result in words): marked, or even occasionally total, decrease of the Ki67 labelling |
| COc1cc(C2C3=C(Nc4c2c(=O)n(C)c(=O)n4C)c2ccccc2C3=O)cc(OC)c1O (centres unmarked) [Compound (6)] | – | ++ (*) | – |
| CC1=C(/C=C/C(C)=C/C=C/C(C)=C/CO)C(C)(C)CCC1 [Retinol] | – | – | HES ([3]; 100 μM): 0; Ki67 ([2]; 100 μM): 0 |
| C=C1CC[C@H](O)C/C1=C/C=C1\CCC[C@]2(C)[C@@H]([C@H](C)CCCC(C)C)CC[C@@H]12 [Vitamin D3] | 0 | 0 | – |
